Literature values in patent US20120015404A1, “GENE CLUSTER FOR THU[…]” (HUAZHONG AGRICULTURAL UNIVERSITY, priority 2009, published 2012).

What was measured:
[1] = test system: Helicoverpa armigera
[2] = test system: larvae of housefly; settings: larvae of housefly take in thuringiensin
[3] = test system: larvae of Galleria mellonella
[4] = test system: Aedes aegypti
[5] = test system: Phaedon cochleariae
[6] = test system: Plutella maculipennis
[7] = test system: Pieris brassicae
[8] = test system: Anastrepha ludens; settings: third stage larvae
[9] = test system: A. obliqua; settings: third stage larvae
[10] = test system: A. serpentine; settings: third stage larvae
[11] = purified thuringiensin
[12] = low concentration, Helicoverpa armigera

| Compound | acute lethal effect [1, 12] | effect on growth and development [1, 12] | weight of the neonate larvae ([1]; lowest testing concentration, 12 days) | half lethal dose [2] [µg/mL] | toxicity relative to DDT ([3]; injected larvae of Galleria mellonella, times of that of DDT) [times] | half lethal dose ([3]; larvae of Galleria mellonella, injected) [µg/g] | toxicity compared with E605 [4] | activity compared with E605 [5] | activity compared with E605 [6] | activity compared with E605 [7] | LC50 [8] [μg/cm^2] | LC50 [9] [μg/cm^2] | LC50 [10] [μg/cm^2] | mutagenicity [11] |
| --- | --- | --- | --- | --- | --- | --- | --- | --- | --- | --- | --- | --- | --- | --- |
| Nc1ncnc2c1ncn2[C@@H]1O[C@H](CO[C@H]2[C@H](O)[C@@H](O)[C@@H](O[C@@H](C(=O)O)[C@H](O)[C@H](OP(=O)(O)O)[C@H](O)C(=O)O)O[C@@H]2CO)[C@@H](O)[C@H]1O [thuringiensin A] | no acute lethal effect | unrecoverable inhibiting effect | no apparent increase |  |  |  |  |  |  |  |  |  |  |  |
| Nc1ncnc2c1ncn2[C@@H]1O[C@H](CO[C@H]2[C@H](O)[C@@H](O)[C@@H](O[C@@H](C(=O)O)[C@H](O)[C@H](OP(=O)(O)O)[C@H](O)C(=O)O)O[C@@H]2CO)[C@@H](O)[C@H]1O [thuringiensin] |  |  |  | 0.5 | 1000 | 0.005 | less than E605 | more than E605 | more than E605 | more than E605 | 0.641 | 0.512 | 0.408 | no mutagenicity |
